ChEMBL document CHEMBL3045835, “Comparative study of conventional and microwave-assisted synthesis of some Schiff bases and their potential as antimicrobial agents” (2012)
In brackets after ≈: the same amount, converted by molar mass.

Assays:
Assay type in all cases: functional
Aspergillus niger [1] = test: Antifungal activity against Aspergillus niger MTCC 2546 at 100 ug/ml after 18 hr by cup-plate method; details: MTCC 2546, 18 h, read-out: DIZ
Pseudomonas fluorescens [2] = test: Antibacterial activity against Pseudomonas fluorescens MTCC 2421 after 24 hr by broth dilution method; details: MTCC 2421, 24 h
Micrococcus luteus [3] = test: Antibacterial activity against Micrococcus luteus MTCC 1538 at 1500 ug/ml after 18 hr by cup-plate method; details: MTCC 1538, 18 h, read-out: DIZ
Pseudomonas fluorescens [4] = test: Antibacterial activity against Pseudomonas fluorescens MTCC 2421 at 1000 ug/ml after 18 hr by cup-plate method; details: MTCC 2421, 18 h, read-out: DIZ
Bacillus subtilis [5] = test: Antibacterial activity against Bacillus subtilis MTCC 441 at 500 ug/ml after 18 hr by cup plate method; details: MTCC 441, 18 h, read-out: DIZ
Escherichia coli [6] = test: Antibacterial activity against Escherichia coli MTCC 1573 at 1000 ug/ml after 18 hr by cup-plate method; details: MTCC 1573, 18 h, read-out: DIZ
Pseudomonas aeruginosa [7] = test: Antibacterial activity against Pseudomonas aeruginosa MTCC 424 at 1000 ug/ml after 18 hr by cup-plate method; details: MTCC 424, 18 h, read-out: DIZ
Micrococcus luteus [8] = test: Antibacterial activity against Micrococcus luteus MTCC 1538 after 24 hr by broth dilution method; details: MTCC 1538, 24 h
Bacillus pumilus [9] = test: Antibacterial activity against Bacillus pumilus MTCC 1456 at 1000 ug/ml after 18 hr by cup-plate method; details: MTCC 1456, 18 h, read-out: DIZ
Bacillus subtilis [10] = test: Antibacterial activity against Bacillus subtilis MTCC 441 at 1500 ug/ml after 18 hr by cup plate method; details: MTCC 441, 18 h, read-out: DIZ
Micrococcus luteus [11] = test: Antibacterial activity against Micrococcus luteus MTCC 1538 at 100 ug/ml after 18 hr by cup-plate method; details: MTCC 1538, 18 h, read-out: DIZ
Aspergillus niger [12] = test: Antifungal activity against Aspergillus niger MTCC 2546 at 1500 ug/ml after 18 hr by cup-plate method; details: MTCC 2546, 18 h, read-out: DIZ
Staphylococcus aureus [13] = test: Antibacterial activity against Staphylococcus aureus MTCC 1430 after 24 hr by broth dilution method; details: MTCC 1430, 24 h
Pseudomonas aeruginosa [14] = test: Antibacterial activity against Pseudomonas aeruginosa MTCC 424 after 24 hr by broth dilution method; details: MTCC 424, 24 h
Staphylococcus aureus [15] = test: Antibacterial activity against Staphylococcus aureus MTCC 1430 at 200 ug/ml after 18 hr by cup-plate method; details: MTCC 1430, 18 h, read-out: DIZ
Pseudomonas fluorescens [16] = test: Antibacterial activity against Pseudomonas fluorescens MTCC 2421 at 100 ug/ml after 18 hr by cup-plate method; details: MTCC 2421, 18 h, read-out: DIZ
Pseudomonas aeruginosa [17] = test: Antibacterial activity against Pseudomonas aeruginosa MTCC 424 at 100 ug/ml after 18 hr by cup-plate method; details: MTCC 424, 18 h, read-out: DIZ
Staphylococcus aureus [18] = test: Antibacterial activity against Staphylococcus aureus MTCC 1430 at 1500 ug/ml after 18 hr by cup-plate method; details: MTCC 1430, 18 h, read-out: DIZ
Penicillium chrysogenum [19] = test: Antifungal activity against Penicillium chrysogenum MTCC 161 at 100 ug/ml after 18 hr by cup-plate method; details: MTCC 161, 18 h, read-out: DIZ
Penicillium chrysogenum [20] = test: Antifungal activity against Penicillium chrysogenum MTCC 161 at 1000 ug/ml after 18 hr by cup-plate method; details: MTCC 161, 18 h, read-out: DIZ
Micrococcus luteus [21] = test: Antibacterial activity against Micrococcus luteus MTCC 1538 at 1000 ug/ml after 18 hr by cup-plate method; details: MTCC 1538, 18 h, read-out: DIZ
Penicillium chrysogenum [22] = test: Antifungal activity against Penicillium chrysogenum MTCC 161 at 200 ug/ml after 18 hr by cup-plate method; details: MTCC 161, 18 h, read-out: DIZ
Aspergillus niger [23] = test: Antifungal activity against Aspergillus niger MTCC 2546 at 1000 ug/ml after 18 hr by cup-plate method; details: MTCC 2546, 18 h, read-out: DIZ
Escherichia coli [24] = test: Antibacterial activity against Escherichia coli MTCC 1573 at 200 ug/ml after 18 hr by cup-plate method; details: MTCC 1573, 18 h, read-out: DIZ
Bacillus pumilus [25] = test: Antibacterial activity against Bacillus pumilus MTCC 1456 at 500 ug/ml after 18 hr by cup-plate method; details: MTCC 1456, 18 h, read-out: DIZ
Bacillus pumilus [26] = test: Antibacterial activity against Bacillus pumilus MTCC 1456 after 24 hr by broth dilution method; details: MTCC 1456, 24 h
Bacillus pumilus [27] = test: Antibacterial activity against Bacillus pumilus MTCC 1456 at 200 ug/ml after 18 hr by cup-plate method; details: MTCC 1456, 18 h, read-out: DIZ

Structure (SMILES): O=c1c(/C=N/c2ccc(Cl)cc2)coc2ccccc12
- zone of inhibition at 100 µg/mL (Aspergillus niger [1]): 16 mm
- MIC (Pseudomonas fluorescens [2]): 300 µg/mL (≈ 1060 µM)
- zone of inhibition at 1500 µg/mL (Micrococcus luteus [3]): 24 mm
- zone of inhibition at 1000 µg/mL (Pseudomonas fluorescens [4]): 16 mm
- zone of inhibition at 500 µg/mL (Bacillus subtilis [5]): 17 mm
- zone of inhibition at 1000 µg/mL (Escherichia coli [6]): 19 mm
- zone of inhibition at 1000 µg/mL (Pseudomonas aeruginosa [7]): 20 mm
- MIC (Micrococcus luteus [8]): 200 µg/mL (≈ 705 µM)
- zone of inhibition at 1000 µg/mL (Bacillus pumilus [9]): 18 mm
- zone of inhibition at 1500 µg/mL (Bacillus subtilis [10]): 21 mm
- zone of inhibition at 100 µg/mL (Micrococcus luteus [11]): 16 mm
- zone of inhibition at 1500 µg/mL (Aspergillus niger [12]): 21 mm
- MIC (Staphylococcus aureus [13]): 300 µg/mL (≈ 1060 µM)
- MIC (Pseudomonas aeruginosa [14]): 200 µg/mL (≈ 705 µM)
- zone of inhibition at 200 µg/mL (Staphylococcus aureus [15]): 14 mm
- zone of inhibition at 100 µg/mL (Pseudomonas fluorescens [16]): 11 mm
- zone of inhibition at 100 µg/mL (Pseudomonas aeruginosa [17]): 16 mm
- zone of inhibition at 1500 µg/mL (Staphylococcus aureus [18]): 21 mm
- zone of inhibition at 100 µg/mL (Penicillium chrysogenum [19]): 15 mm
- zone of inhibition at 1000 µg/mL (Penicillium chrysogenum [20]): 20 mm
- zone of inhibition at 1000 µg/mL (Micrococcus luteus [21]): 23 mm
- zone of inhibition at 200 µg/mL (Penicillium chrysogenum [22]): 17 mm
- zone of inhibition at 1000 µg/mL (Aspergillus niger [23]): 20 mm
- zone of inhibition at 200 µg/mL (Escherichia coli [24]): 16 mm
- zone of inhibition at 500 µg/mL (Bacillus pumilus [25]): 17 mm
- MIC (Bacillus pumilus [26]): 200 µg/mL (≈ 705 µM)
- zone of inhibition at 200 µg/mL (Bacillus pumilus [27]): 15 mm
